Results published in US7465729B2, “Methods of treatment of menopause and perimenopause using eszopiclone” (Sepracor Inc., priority 2004, dated 2008).

How the values were obtained:
mice = test: Antimuscarinic activity in vivo: oxotremorine induced salivation; conditions: doses up to 300 mg/kg, p.o.
Description: Eszopiclone was evaluated for antimuscarinic activity in vivo.

conscious dogs = test: Dose escalation safety study, cardiovascular and respiratory parameters
Description: To establish the safety of eszopiclone, a dose escalation study was carried out. Cardiovascular and respiratory parameters were evaluated in conscious dogs following acute intravenous administration of (R)-, (S)- or racemic zopiclone at three doses (3, 5 and 12 mg/kg).

[1] = acute intravenous, 3, 5 and 12 mg/kg

SMILES: CN1CCN(C(=O)O[C@@H]2c3nccnc3C(=O)N2c2ccc(Cl)cn2)CC1 [(R)-zopiclone]
- antagonism of oxotremorine induced salivation (mice): neither (R)-, (S)-, nor racemic zopiclone significantly antagonized oxotremorine induced salivation
- cardiotoxicity, as evidenced by the electrocardiogram (ECG) (conscious dogs; [1]): No evidence of cardiotoxicity
- effect on blood pressure (conscious dogs; [1]): no effect
- effect on heart rate (conscious dogs; [1]): no effect
- Blood gases and blood chemistries (pH, pCO2, pO2, hematocrit, and lactate) (conscious dogs; acute intravenous, 3, 5 and 12 mg/kg, all dose groups): remained unaffected
- hemodynamic effect (conscious dogs; intravenous, 12 mg/kg): did not produce a consistent hemodynamic effect
